Results published in PMC3248991 (2011).

Molecular target: HDM2 (MDM2) (Homo sapiens, UniProt Q00987)
Test: HTR-FRET competition assay of biotin-p53 / GST-HDM2 binding

Sequence of HDM2 (MDM2) (Q00987 whole entry): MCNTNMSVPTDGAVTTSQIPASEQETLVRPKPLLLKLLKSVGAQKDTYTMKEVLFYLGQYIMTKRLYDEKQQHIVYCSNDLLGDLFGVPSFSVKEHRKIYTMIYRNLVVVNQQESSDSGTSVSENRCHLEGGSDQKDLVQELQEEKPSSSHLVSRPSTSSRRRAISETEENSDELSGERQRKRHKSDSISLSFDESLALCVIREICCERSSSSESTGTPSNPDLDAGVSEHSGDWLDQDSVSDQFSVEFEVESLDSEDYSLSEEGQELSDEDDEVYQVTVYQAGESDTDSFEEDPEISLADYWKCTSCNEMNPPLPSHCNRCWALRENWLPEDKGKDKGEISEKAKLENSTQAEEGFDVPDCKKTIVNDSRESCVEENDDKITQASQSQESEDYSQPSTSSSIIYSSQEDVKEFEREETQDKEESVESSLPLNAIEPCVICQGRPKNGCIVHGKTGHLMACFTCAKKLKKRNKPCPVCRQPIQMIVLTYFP

CCC[C@@H](C)[C@H](O)[C@H](C)[C@@H](O)[C@@H](C)[C@H](Cc1nc(C2=N[C@@](C)(C3=N[C@@](C)(C(=O)N[C@H]([C@@H](O)[C@@H](C)C(=O)O)[C@@H](C)CC)CS3)CS2)cs1)OC [compound 1, hoiamide D]
IC50: 4.5 µM
